Values of other authors, collected in patent US11192861B2, “Human plasma kallikrein inhibitors” (BioCryst Pharmaceuticals, Inc., priority 2014, dated 2021).

Test system: hereditary angioedema (HAE)

Row | Compound | edema in patients with hereditary angioedema (patients with HAE) | effectiveness in treating HAE (in vivo)
1 | ecallantide [DX-88] | alleviates edema | 
2 | NC(N)=NCCC[C@@H](N)C(=O)N[C@@H](CCCN=C(N)N)C(=O)N1CCC[C@H]1C(=O)N1C[C@H](O)C[C@H]1C(=O)NCC(=O)N[C@@H](Cc1cccs1)C(=O)N[C@@H](CO)C(=O)N1Cc2ccccc2C[C@@H]1C(=O)N1[C@H](C(=O)N[C@@H](CCCN=C(N)N)C(=O)O)C[C@@H]2CCCC[C@@H]21 [Icatibant] |  | effective in treating HAE
